Results as given in US20210268009A1, “Composition For Preventing Hair Loss Or Promoting Hair Regrowth” (LG Household & Health Care Ltd., priority 2018, published 2021).

Tests used:
[1] = tested on: Human-derived dermal papilla cells (DPCs); experiment: Dermal papilla cell proliferation, CCK-8 (Experimental Example 6); format: cell-based; conditions: for Dermal Papilla Cell Proliferation Ability (%): one day, control = 100; for proliferation of dermal papilla cells, result in words: summary of Table 8
Experimental: Human-derived dermal papilla cells (DPCs) were purchased from PromoCell GmbH. The DPCs were cultured in a DMEM medium (Hyclone Inc., Utah, USA) containing 5% of fetal bovine serum (FBS; Gibco, NY, USA), 10 units/mL of penicillin and 100 μg/mL of streptomycin at 37° C. under 5% of CO2. The cultured DPCs were pipetted to a 96-well plate at 3,000 cells/well and cultured under the condition of 0.1% of serum for 24 hours. Then, the cultured cells were treated with 10 μg/mL of each of the samples of rhaponticin, rhein, chrysophanol, physicon-8-O-glucopyranoside and combinations thereof as shown in the following Table 8 for one day and then incubated, and DMSO (vehicle) diluted to 1:1000 in serum-free DMEM was used as a control and 2 μg/mL of minoxidil was used as a positive control . After incubation, a cell counting kit (CCK) was used to evaluate proliferation of cells. The culture medium was treated with CCK-8 at a ratio of 1:10, followed by incubation for 1 hour. After 1 hour, the absorbance of each well was determined at 450 nm. All tests were repeated three times and the average of absorbance value was calculated. The results are shown by the percentage of a test group as the result of the control is taken as 100.

VEGF = experiment: Real-time PCR gene expression in dermal papilla cells: VEGF; format: cell-based, human; conditions: for Expression of Genes (%): VEGF: non-treated group = 100; for expression of VEGF, result in words: summary of Table 10
Source text: (§1) In general, it is known that VEGF, IGF-1, FGF, or the like, secreted in dermal papilla cells induce an anagen stage of hair. In addition, versican is known as a marker of an anagen stage of hair and DKK-1 is known as a marker of a catagen stage of hair. Therefore, effects of rhaponticin, rhein, chrysophanol and physicon-O-d-glucopyranoside upon the signals of accelerating an anagen stage and those of inducing a catagen stage in dermal papilla cells were examined according to the present disclosure. In a 6-well culture plate, dermal papilla cells were seeded to each well at 1×10^5 and treated with 10 μg/mL of each of the samples of rhaponticin, rhein, chrysophanol, physicon-O-d-glucopyranoside and combinations thereof as shown in the following Table 10. Then, real-time PCR was used to determine expression of each of VEGF, versican and DKK-1 by using Taqman® probe (Thermo Fisher, Massachusetts, USA) as shown in the following Table 9. [table]

Versican = experiment: Real-time PCR gene expression in dermal papilla cells: versican; format: cell-based, human; conditions: for Expression of Genes (%): Versican: non-treated group = 100; for expression of versican, result in words: summary of Table 10
Source text: as §1

DKK-1 = experiment: Real-time PCR gene expression in dermal papilla cells: DKK-1; format: cell-based, human; conditions: for Expression of Genes (%): DKK-1: non-treated group = 100; for expression of DKK-1, result in words: summary of Table 10
Source text: as §1

[2] = tested on: Wnt/β-catenin promoter activity (Wnt reporter HEK293SA cells); experiment: Wnt/β-catenin promoter luciferase reporter analysis; format: cell-based; conditions: escin 5, 10 and 20 μg/mL, FIG. 1
Experimental: In general, Wnt/β-catenin signals activated in dermal papilla cells are generated while a transition from a […] to an anagen stage occurs in the hair growth cycle, i.e. during a period from beginning of hair growth to an activation stage of hair growth. In addition, in a telogen stage and catagen stage, Wnt/β-catenin signals become weak or disappear to cause degradation of hair follicles and depilation. In this Experimental Example, it is determined how escin contributes to amplification of Wnt/β-catenin signals.
As a positive control which amplifies Wnt/β-catenin signals, wnt3a protein was used. In addition, dimethyl sulfoxide (DMSO) was used as a negative control. In a 96-well culture plate, approximately 3×10^4 of Wnt reporter HEK293SA cells were seeded to each well and treatment with escin was carried out at a concentration of 5 μg/mL, 10 μg/mL and 20 μg/mL. Then, a luciferase assay kit (E1960) available from Promega Corp. was used to carry out reporter analysis according to the test method provided by the company. In addition, luminometer Victor (Perkin Elmer, Waltham, Mass., USA) was used to determine Wnt/β-catenin promoter activity.

[3] = tested on: Human-derived dermal papilla cells (DPCs); experiment: Dermal papilla cell proliferation, CCK-8 (Experimental Example 2, escin); format: cell-based; conditions: one day; for Dermal Papilla Cell Proliferation Ability (%): control = 100
Experimental: Human-derived dermal papilla cells (DPCs) were purchased from PromoCell GmbH. DPCs were cultured under the conditions of 37° C. and 5% CO2 by using a follicle dermal papilla cell growth medium and supplement mix recommended by PromoCell GmbH. The cultured DPCs were pipetted to a 96-well plate at 3,000 cells/well and cultured for 24 hours in the presence of 0.1% of blood serum. Then, the cultured cells were treated with escin at a concentration of 0.2, 0.5, 1.2 and 5 μg/mL for one day and then incubated, and DMSO (vehicle) diluted to 1:1000 in serum-free DMEM was used as a control. After incubation, a cell counting kit (CCK) was used to evaluate proliferation of cells. The culture medium was treated with CCK-8 at a ratio of 1:10, followed by incubation for 1 hour. After 1 hour, the absorbance of each well was determined at 450 nm. All tests were repeated three times and the average of absorbance value was calculated. The results are shown by the percentage of a test group with the result of the control taken as 100.

β-catenin = experiment: Expression of β-catenin in dermal papilla cells (SDS-PAGE / anti-β-catenin antibody); format: cell-based, human; conditions: escin 0.2-5 μg/mL, 1 day; GAPDH control; FIG. 2
Source text: In dermal papilla cells in a catagen stage and a telogen stage, during which Wnt signals are inhibited, β-catenin is decomposed by GSK3-beta. However, in dermal papilla cells in an anagen stage, during which Wnt signals are amplified, activity of GSK3-beta is inhibited and β-catenin is not decomposed, resulting in an increase in expression of β-catenin. Human dermal papilla cells were pipetted to six well plates at about 500,000 cells/well, and treated with escin for 1 day at a concentration of 0.2, 0.5, 1.2 and 5 μg/mL, followed by incubation. After incubation, M-PER lysis buffer was used to cause lysis of the cells and the same amount of cell lysate was loaded on SDS-PAGE gel. The cell lysate loaded on SDS-PAGE gel was transferred to a nitrocellulose membrane and anti-β-catenin antibody was attached to the nitrocellulose membrane to detect protein. GAPDH was used as a control for correcting protein content. The amount of β-catenin increased by escin was determined.

Cc1cc(O)c2c(c1)C(=O)c1cccc(O)c1C2=O [Chrysophanol]
Dermal Papilla Cell Proliferation Ability (%) ([1]; 10 μg/mL): 152.0%
proliferation of dermal papilla cells, result in words [1]: excellent effect of accelerating proliferation of dermal papilla cells
Expression of Genes (%): VEGF (VEGF; 10 μg/mL): 250%
expression of VEGF, result in words (VEGF): increase expression of VEGF
Expression of Genes (%): Versican (Versican; 10 μg/mL): 158%
expression of versican, result in words (Versican): increase expression
Expression of Genes (%): DKK-1 (DKK-1; 10 μg/mL): 123%
expression of DKK-1, result in words (DKK-1): reduce expression of DKK-1

Nc1cc(N2CCCCC2)nc(N)[n+]1[O-] [Minoxidil, 2,4-diamino-6-piperidinopyrimidine-3-oxide, reference compound]
Dermal Papilla Cell Proliferation Ability (%) ([1]; 2 μg/mL): 187.2%
Expression of Genes (%): VEGF (VEGF; 2 μg/mL): 110%
Expression of Genes (%): Versican (Versican; 2 μg/mL): 134%
Expression of Genes (%): DKK-1 (DKK-1; 2 μg/mL): 128%

COc1cc(OC2OC(CO)C(O)C(O)C2O)c2c(c1)C(=O)c1cc(C)cc(O)c1C2=O (stereo not drawn) [Physicon-8-O-d-glucopyranoside]
Dermal Papilla Cell Proliferation Ability (%) ([1]; 10 μg/mL): 148.3%
proliferation of dermal papilla cells, result in words [1]: excellent effect of accelerating proliferation of dermal papilla cells
Expression of Genes (%): VEGF (VEGF; 10 μg/mL): 164%
expression of VEGF, result in words (VEGF): increase expression of VEGF
Expression of Genes (%): Versican (Versican; 10 μg/mL): 175%
expression of versican, result in words (Versican): increase expression
Expression of Genes (%): DKK-1 (DKK-1; 10 μg/mL): 75%
expression of DKK-1, result in words (DKK-1): reduce expression of DKK-1

COc1ccc(/C=C/c2cc(O)cc(O[C@@H]3O[C@H](CO)[C@@H](O)[C@H](O)[C@H]3O)c2)cc1O [Rhaponticin]
Dermal Papilla Cell Proliferation Ability (%) ([1]; 10 μg/mL): 162.7%
proliferation of dermal papilla cells, result in words [1]: excellent effect of accelerating proliferation of dermal papilla cells
Expression of Genes (%): VEGF (VEGF; 10 μg/mL): 210%
expression of VEGF, result in words (VEGF): increase expression of VEGF
Expression of Genes (%): Versican (Versican; 10 μg/mL): 130%
expression of versican, result in words (Versican): increase expression
Expression of Genes (%): DKK-1 (DKK-1; 10 μg/mL): 112%
expression of DKK-1, result in words (DKK-1): reduce expression of DKK-1

O=C(O)c1cc(O)c2c(c1)C(=O)c1cccc(O)c1C2=O [Rhein]
Dermal Papilla Cell Proliferation Ability (%) ([1]; 10 μg/mL): 152.7%
proliferation of dermal papilla cells, result in words [1]: excellent effect of accelerating proliferation of dermal papilla cells
Expression of Genes (%): VEGF (VEGF; 10 μg/mL): 144%
expression of VEGF, result in words (VEGF): increase expression of VEGF
Expression of Genes (%): Versican (Versican; 10 μg/mL): 154%
expression of versican, result in words (Versican): increase expression
Expression of Genes (%): DKK-1 (DKK-1; 10 μg/mL): 76%
expression of DKK-1, result in words (DKK-1): reduce expression of DKK-1

Escin
Wnt/β-catenin signal effect compared to the positive control wnt3a protein [2]: higher effect as compared to the positive control
amplification of Wnt/β-catenin signals as compared to the non-treated negative control ([2]; no concentration dependence, clear effect at about 20 μg/mL): approximately 11 times
Dermal Papilla Cell Proliferation Ability (%) ([3]; 0.2 μg/mL): 168.8%
Dermal Papilla Cell Proliferation Ability (%) ([3]; 0.5 μg/mL): 198.7%
Dermal Papilla Cell Proliferation Ability (%) ([3]; 1 μg/mL): 194.4%
Dermal Papilla Cell Proliferation Ability (%) ([3]; 2 μg/mL): 204.8%
Dermal Papilla Cell Proliferation Ability (%) ([3]; 5 μg/mL): 208.3%
DPC proliferation, result in words ([3]; escin 0.2-5 μg/mL): shows an effect of DPC proliferation
amount of β-catenin in dermal papilla cells, result in words (β-catenin): significant increase in amount of β-catenin
